Measurements reported in patent publication US20140249076A1, “AMYLIN-CALCITONIN CHIMERIC PEPTIDES CONJUGATED TO DURATION ENHANCING MOIETIES” (AMYLIN PHARMACEUTICALS, LLC, priority 2011, published 2014).
Numbered stars: 1 amine (or outer) side, 2 acyl side, 3 side chain; on linkers, the order of the positions; unused ones are H or OH. Bridge positions count the residues as written; N and C are the ends. Side chains are listed from the residue outwards. Peptide text beside a SMILES is read from it. * marks the point of attachment. γGlu = O=C(O)[C@H](CCC(=O)[*:2])N[*:1]; Palmitoyl = CCCCCCCCCCCCCCCC(=O)*

How the values were obtained:
Amylin receptor = molecular target: T1, Amylin receptor (Rattus norvegicus, UniProt P32214); experiment: Amylin receptor binding assay (125I-rat amylin, RNA membranes); conditions: Table 8
T1 construct: from tissue; read as rat nucleus accumbens membranes
T1 sequence (P32214 25-516): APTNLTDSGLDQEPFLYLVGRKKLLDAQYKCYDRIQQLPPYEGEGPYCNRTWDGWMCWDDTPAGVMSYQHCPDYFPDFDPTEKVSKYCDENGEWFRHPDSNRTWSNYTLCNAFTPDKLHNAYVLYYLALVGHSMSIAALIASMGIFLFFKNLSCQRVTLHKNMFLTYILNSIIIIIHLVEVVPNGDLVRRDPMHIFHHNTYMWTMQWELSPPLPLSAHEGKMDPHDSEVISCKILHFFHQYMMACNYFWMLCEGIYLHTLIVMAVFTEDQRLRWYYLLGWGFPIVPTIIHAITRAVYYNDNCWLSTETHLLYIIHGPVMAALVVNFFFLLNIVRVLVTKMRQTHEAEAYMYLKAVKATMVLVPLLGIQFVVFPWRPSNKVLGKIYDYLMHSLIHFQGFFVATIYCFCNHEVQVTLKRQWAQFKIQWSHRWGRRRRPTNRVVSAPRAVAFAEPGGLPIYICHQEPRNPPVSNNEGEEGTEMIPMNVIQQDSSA
T1 sequence (Q9JJ74 27-148 partner): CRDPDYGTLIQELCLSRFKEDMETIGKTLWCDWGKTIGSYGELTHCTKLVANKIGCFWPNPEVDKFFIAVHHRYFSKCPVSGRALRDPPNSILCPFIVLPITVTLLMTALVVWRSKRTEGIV
Procedure: (§1) Amylin receptor binding assay. RNA membranes can be incubated with approximately 20 μM (final concentration) of ^125I-rat amylin (Bolton-Hunter labeled, PerkinElmer, Waltham, Mass.) and increasing concentrations of test compound for 1 hour at ambient temperature in, for example, 96-well polystyrene plates. […] Dried glass fiber plates can be combined with scintillant and counted on a multi-well Perkin Elmer scintillation counter.
(§2) A variety of receptor binding and functional activity assays were conducted using the peptide conjugates described herein. Receptor binding activity can be expressed, for example in Table 6, as an IC50 value, calculated from the raw data using an iterative curve-fitting program using a 4-parameter logistic equation (PRISM®, GraphPAD Software, La Jolla, Calif.), as known in the art.
as §1, with “For the amylin” for “Amylin”, “assay,” for “assay.”, “were” for “can be”, “in” for “in, for example,”, “counter, as well known in the art.” for “counter.”

Calcitonin receptor = molecular target: T2, Calcitonin receptor (Rattus norvegicus, UniProt P32214); experiment: Calcitonin receptor binding assay (125I-human calcitonin, C1a-HEK cell membranes); conditions: Table 8
T2 construct: expressed in transfected cells; host or cells: C1a-HEK cells (HEK cells stably expressing the receptor), membranes
T2 sequence (P32214 25-479 isoform P32214-2 limits assumed): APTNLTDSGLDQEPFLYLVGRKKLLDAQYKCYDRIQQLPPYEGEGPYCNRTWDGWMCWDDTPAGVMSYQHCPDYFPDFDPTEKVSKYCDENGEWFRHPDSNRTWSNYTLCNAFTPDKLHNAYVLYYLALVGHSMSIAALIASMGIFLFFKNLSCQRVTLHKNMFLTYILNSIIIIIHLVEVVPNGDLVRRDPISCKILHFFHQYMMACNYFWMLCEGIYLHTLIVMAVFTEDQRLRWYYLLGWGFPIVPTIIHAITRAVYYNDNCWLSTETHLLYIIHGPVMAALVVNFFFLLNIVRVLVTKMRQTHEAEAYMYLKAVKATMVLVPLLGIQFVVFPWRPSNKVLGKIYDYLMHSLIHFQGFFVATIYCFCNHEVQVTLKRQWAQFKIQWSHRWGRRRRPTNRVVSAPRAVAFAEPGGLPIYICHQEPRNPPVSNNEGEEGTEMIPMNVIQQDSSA
Procedure: as §1, with “Calcitonin” for “Amylin”, “C1a-HEK cell” for “RNA”, “[…]” for “20”, “^125I-human calcitonin (PerkinElmer,” for “^125I-rat amylin (Bolton-Hunter labeled, PerkinElmer,”, “multiwell” for “multi-well”
as §2
For the calcitonin receptor binding assay, C1a-HEK cell membranes were incubated with approximately […] (final concentration) of ^125I-human calcitonin (PerkinElmer, Waltham, Mass.) and increasing concentrations of test compound for 1 hour at ambient temperature in 96-well polystyrene plates. […] Dried glass fiber plates were combined with scintillant and counted on a multiwell Perkin Elmer scintillation counter.

mice = experiment: Forced swim test (FST); assay type: in vivo, mouse; conditions: qualitative result; 0.03 mg/kg dosing, as in Example 8
Source text: The forced swim test (FST) is a commonly used paradigm to evaluate antidepressant activity of drugs. The FST is based on measurement of the animal's floating time in a tank filled with water. When rats or mice are forced to swim in a deep cylinder with tepid water they become nearly immobile and cease trying to escape. Without wishing to be bound by any theory, it is believe that this characteristic immobile posture reflects a depressive-like state which is readily influenced by a wide variety of antidepressants. See, e.g., Hedou et al., 2001, Pharmacol, Biochem. Behay. 70:65-76; Chaki et al., 2003, J. Pharmacol. Exp. Ther. 304:818-826; Porsolt et al., 1977, Nature 266:730-732. Antidepressants decrease the immobility time in the FST. Vehicle or test compound can be delivered continuously for two weeks to mice by subcutaneously implanted osmotic pumps prior to the FST. Indeed, any route of administration (e.g., intraperitoneal, subcutaneous, oral and the like) is available. Mice can be placed in the water tank for assessment of climbing, swimming, and immobility over a defined trial session, typically 6 minutes. Test session parameters for mice and rats are typically different, as known in the art.
The forced swim test (FST) is a commonly used paradigm to evaluate antidepressant activity of drugs. […] Specifically, vehicle or test compound was delivered continuously for two weeks to mice by subcutaneously implanted osmotic pumps prior to the FST assay, by methods well known in the art. On day one, the patients were introduced into the tank for a 15 minute pre-swim session. On day two, the patients were placed back into the water tank for assessment of climbing, swimming, and immobility over a 6 minute trial session. The rate of compound infusion was 0.03 mg/kg/day.

[1] = system: male Harlan Sprague-Dawley rats; experiment: Stress-induced hyperthermia (SIH) assay; assay type: in vivo, rat; conditions: 0.1 mg/kg IP, 18 hr pretreatment
Source text: Stress-induced hyperthermia (SIH). Body temperature and emotional state are closely related in humans. Without wishing to be bound by any theory, it is believed that stress-induced hyperthermia (SIH) in rodents has predictive validity for certain human anxiety/stress disorders. The SIH assay assesses the effect of test agents (e.g, anxiolytics) on core body temperature following restraint stress. See, for example, Zethof et al., 1994, Physiol. Behay. 55:109-115. Anxiolytics typically blunt the increase in body temperature, or hyperthermic response, following stress exposure. […] Test animals can then be patiented to two sequential rectal temperature measurements at a measured time interval (e.g, 30 min). The difference between the second temperature reading and the first temperature reading (ΔT) is the stress-induced hyperthermic response.
As described above, it is believed that stress-induced hyperthermia (SIH) in rodents (e.g., rats) has predictive validity for certain human anxiety/stress disorders. […] Temperature readings were obtained remotely at the time of injection and at t=0 and t=30 minutes. The SIH response was defined as the change from t=30 back to t=0 minutes, while effects on basal temperature were calculated as the change from t=0 back to the time of injection.

| Structure (SMILES) | IC50 (Amylin receptor) | IC50 (Calcitonin receptor) | FST Assay, 0.03 mg/kg (mice) | SIH response [1] |
| --- | --- | --- | --- | --- |
| CC(C)C[C@H](NC(=O)[C@H](C)NC(=O)[C@@H]1CSSC[C@H](NC(=O)[C@@H](N)CCCCN)C(=O)N[C@@H](CC(N)=O)C(=O)N[C@@H]([C@@H](C)O)C(=O)N[C@@H](C)C(=O)N[C@@H]([C@@H](C)O)C(=O)N1)C(=O)N[C@@H](CCC(N)=O)C(=O)N[C@@H](CCCNC(=N)N)C(=O)N[C@@H](CC(C)C)C(=O)N[C@@H](C)C(=O)N[C@@H](CCC(N)=O)C(=O)N[C@@H](CCC(=O)O)C(=O)N[C@@H](CC(C)C)C(=O)N[C@@H](Cc1c[nH]cn1)C(=O)N[C@@H](CCCNC(=N)N)C(=O)N[C@@H](CC(C)C)C(=O)N[C@@H](CCC(N)=O)C(=O)N[C@H](C(=O)N[C@@H](Cc1ccc(O)cc1)C(=O)N1CCC[C@H]1C(=O)N[C@@H](CCCNC(=N)N)C(=O)N[C@H](C(=O)N[C@@H](CC(N)=O)C(=O)N[C@H](C(=O)NCC(=O)N[C@@H](CO)C(=O)N[C@@H](CC(N)=O)C(=O)N[C@H](C(=O)N[C@@H](Cc1ccc(O)cc1)C(N)=O)[C@@H](C)O)C(C)C)[C@@H](C)O)[C@@H](C)O [Cmpd 17] (H-KCNTATCALQRLAQELHRLQTYPRTNVGSNTY-NH2; disulfide 2-7; N-terminus assumed) | 0.028 nM | 0.095 nM | Inactive | – |
| CCCCCCCCCCCCCCCC(=O)N[C@@H](CCC(=O)NCCCC[C@H](NC(=O)[C@@H](NC(=O)[C@H](CCCNC(=N)N)NC(=O)[C@@H]1CCCN1C(=O)[C@H](Cc1ccc(O)cc1)NC(=O)[C@@H](NC(=O)[C@H](CCC(N)=O)NC(=O)[C@H](CC(C)C)NC(=O)[C@H](CCCNC(=N)N)NC(=O)[C@H](Cc1c[nH]cn1)NC(=O)[C@H](CC(C)C)NC(=O)[C@H](CCC(=O)O)NC(=O)[C@H](CCC(N)=O)NC(=O)[C@H](C)NC(=O)[C@H](CC(C)C)NC(=O)[C@H](CCCNC(=N)N)NC(=O)[C@H](CCC(N)=O)NC(=O)[C@H](CC(C)C)NC(=O)[C@H](C)NC(=O)[C@@H]1CSSC[C@H](NC(=O)[C@@H](N)CCCCN)C(=O)N[C@@H](CC(N)=O)C(=O)N[C@@H]([C@@H](C)O)C(=O)N[C@@H](C)C(=O)N[C@@H]([C@@H](C)O)C(=O)N1)[C@@H](C)O)[C@@H](C)O)C(=O)N[C@H](C(=O)NCC(=O)N[C@@H](CO)C(=O)N[C@@H](CC(N)=O)C(=O)N[C@H](C(=O)N[C@@H](Cc1ccc(O)cc1)C(N)=O)[C@@H](C)O)C(C)C)C(=O)O [Cmpd 189, [K^26ε-(γ-Glu(Nα-C16-Chain))]-Cmpd 17] (H-KCNTATCALQRLAQELHRLQTYPRTK([γGlu-Palmitoyl])VGSNTY-NH2; disulfide 2-7 (inferred); N-terminus assumed) | – | – | Active | statistically insignificant reduction in SIH |
| CCCCCCCCCCCCCCCC(=O)N[C@@H](CCC(=O)NCCCC[C@H](N)C(=O)N[C@@H](CCCCN)C(=O)N[C@H]1CSSC[C@@H](C(=O)N[C@@H](C)C(=O)N[C@@H](CC(C)C)C(=O)N[C@@H](CCC(N)=O)C(=O)N[C@@H](CCCNC(=N)N)C(=O)N[C@@H](CC(C)C)C(=O)N[C@@H](C)C(=O)N[C@@H](CCC(N)=O)C(=O)N[C@@H](CCC(=O)O)C(=O)N[C@@H](CC(C)C)C(=O)N[C@@H](Cc2c[nH]cn2)C(=O)N[C@@H](CCCNC(=N)N)C(=O)N[C@@H](CC(C)C)C(=O)N[C@@H](CCC(N)=O)C(=O)N[C@H](C(=O)N[C@@H](Cc2ccc(O)cc2)C(=O)N2CCC[C@H]2C(=O)N[C@@H](CCCNC(=N)N)C(=O)N[C@H](C(=O)N[C@@H](CC(N)=O)C(=O)N[C@H](C(=O)NCC(=O)N[C@@H](CO)C(=O)N[C@@H](CC(N)=O)C(=O)N[C@H](C(=O)N[C@@H](Cc2ccc(O)cc2)C(N)=O)[C@@H](C)O)C(C)C)[C@@H](C)O)[C@@H](C)O)NC(=O)[C@H]([C@@H](C)O)NC(=O)[C@H](C)NC(=O)[C@H]([C@@H](C)O)NC(=O)[C@H](CC(N)=O)NC1=O)C(=O)O [Cmpd 195, Kε-(γ-Glu(Nα-C16-Chain))-Cmpd 17] (H-K([γGlu-Palmitoyl])KCNTATCALQRLAQELHRLQTYPRTNVGSNTY-NH2; disulfide 3-8; N-terminus assumed) | – | – | Active | – |
